The CheMixHub ionic liquid set

Assay: xn = mol fraction of the nth substance listed
Conditions: 100 kPa

CCCC[n+]1ccn(C)c1.O=S(=O)([O-])C(F)(F)F + CS(C)=O + OCCO
viscosity [mPa·s]
Conditions | 298.15 K | 303.15 K | 308.15 K | 313.15 K | 318.15 K | 323.15 K
x1 = 0.0301, x2 = 0.903 | 3.07 | 2.75 | 2.47 | 2.25 | 2.04 | 1.86
x1 = 0.0698, x2 = 0.8409 | 3.41 | 3.16 | 2.83 | 2.56 | 2.32 | 2.12
x1 = 0.1006, x2 = 0.7931 | 4.04 | 3.69 | 3.29 | 2.96 | 2.67 | 2.43
x1 = 0.1311, x2 = 0.7537 | 5.33 | 4.67 | 4.14 | 3.69 | 3.31 | 3
x1 = 0.1702, x2 = 0.7004 | 6.5 | 5.61 | 4.93 | 4.37 | 3.9 | 3.51
x1 = 0.2067, x2 = 0.6494 | 8.13 | 6.91 | 6.04 | 5.31 | 4.71 | 4.21
x1 = 0.2329, x2 = 0.603 | 9 | 7.8 | 6.78 | 5.95 | 5.26 | 4.68
x1 = 0.2768, x2 = 0.5373 | 11.8 | 9.8 | 8.47 | 7.38 | 6.48 | 5.74
x1 = 0.3089, x2 = 0.4851 | 13.6 | 11.2 | 9.67 | 8.39 | 7.35 | 6.48
x1 = 0.3348, x2 = 0.4441 | 15.1 | 12.1 | 10.4 | 8.97 | 7.83 | 6.89
x1 = 0.3723, x2 = 0.3876 | 17.3 | 14.2 | 12.2 | 10.5 | 9.13 | 8
x1 = 0.4022, x2 = 0.3357 | 19 | 15.7 | 13.4 | 11.5 | 10 | 8.73
x1 = 0.4355, x2 = 0.2923 | 21.3 | 17.9 | 15.1 | 13 | 11.2 | 9.82
x1 = 0.473, x2 = 0.2581 | 23.3 | 19.3 | 16.3 | 14 | 12.1 | 10.5
x1 = 0.5076, x2 = 0.2336 | 25.5 | 21.2 | 17.9 | 15.2 | 13.1 | 11.4
x1 = 0.5442, x2 = 0.2004 | 27.9 | 23.2 | 19.6 | 16.6 | 14.3 | 12.4
x1 = 0.5775, x2 = 0.1858 | 30.3 | 25.2 | 21.2 | 18 | 15.4 | 13.4
x1 = 0.6051, x2 = 0.18 | 32.5 | 26.9 | 22.6 | 19.2 | 16.4 | 14.2
x1 = 0.6226, x2 = 0.1647 | 33.8 | 27.8 | 23.3 | 19.7 | 16.9 | 14.6
x1 = 0.6651, x2 = 0.1526 | 37.8 | 31 | 26.1 | 22 | 18.8 | 16.2
x1 = 0.6961, x2 = 0.1474 | 41.2 | 33.5 | 28.2 | 23.8 | 20.3 | 17.5
